According to US20150024008A1, “Methods and Compositions Involving Induced Senescent Cells for Cancer Treatment” (THE UNIVERSITY OF CHICAGO, priority 2011, published 2015):

How the values were obtained:
[1] = system: 22Rv1 (human) prostate carcinoma cells; experiment: Flow cytometric detection of SA-βGal with DDAO-G; format: cell-based
Experimental: Prostate carcinoma (PCa) cell lines included 22Rv1 (human) and TRAMP-C2 (murine, ATCC). PCa cell lines were propagated in complete culture medium using sterile culture flasks in a humidified, 5% CO2 incubator at 37° C. For 22Rv1 human PCa cells, complete media consisted of RPMI-1640 1× (modified without L-glutamine, Invitrogen) supplemented with fetal bovine serum (FBS, 10%, Gemini Biosciences), stabilized L-glutamine (2 mM, Gemini Biosciences), and penicillin-streptomycin solution (100 U/ml penicillin, 100 μg/ml streptomycin, Invitrogen). For TRAMP-C2 murine PCa cells, complete medium consisted of DMEM (modified with 4.5 g/l glucose and without L-glutamine, Invitrogen) supplemented with FBS (5%), Nu-Serum IV (5%, BD Biosciences), stabilized L-glutamine (4 mM), dehydroisoandrosterone (10 nM, Sigma-Aldrich), bovine insulin (5 μg/ml, Sigma-Aldrich), and penicillin-streptomycin solution (100 U/ml penicillin, 100 μg/ml streptomycin).
Cells were plated at low density (˜25×10^3 cells/cm^2) and incubated overnight to allow adherence to culture surfaces. The following day, PARP inhibitor veliparib (ABT-888, 10 μM in DMSO, ChemieTek) was added (or not) to freshly changed media to enhance uptake of the compound. Cells were incubated with veliparib for 60 minutes at 37° C. in 5% CO2 prior to gamma irradiation (IR, 6 Gy). Treated and untreated cells were then incubated undisturbed for 5 days to allow senescence to proceed.
Cells were pelleted by centrifugation for 5 minutes at 1000×g, supernatant removed, and pellet resuspended in 1% bovine serum albumin (BSA, United States Biological) in DPBS. Cell suspensions were counted (cells/mL) using a handheld counting device (Scepter, Millipore). […]
Analysis of SA-βGal signal was conducted by flow cytometry, using an LSRII cytometer (Becton Dickinson) equipped with a 633 nm red diode laser and a 670/30 (APC) bandpass filter suitable for DDAO red fluorescent signal excitation and emission detection. […] Single, whole cells were then visualized on a red-fluorescence vs SSC-A plot in order to define senescent SA-βGal^+ SSC^high cells. […]

[2] = system: breast, prostate, melanoma and head and neck squamous cell cancer cell lines; experiment: Radiation induced senescence in different human cancer cell lines; format: cell-based; conditions: combined with radiation
[3] = system: TUBO murine mammary tumor cells; experiment: Senescence, SASP expression and ATP release of TUBO cells in low or high glucose media; format: cell-based, mouse
Experimental: (§1) Slides were deparaffinized in xylene and hydrated with alcohol before being placed in 0.3% H2O2/methanol blocking solution to quench endogenous peroxidase activity followed by subsequent antigen unmasking in EDTA buffer. […] Reactions were developed with 3,3′-diaminobenzidine chromogen or Vulcan Red, respectively, and counterstained with hematoxylin. Negative controls were obtained by using isotype-matched primary antibody IgG. The SA-βGal assay was performed using the Senescence Beta-galactosidase Staining Kit (Cell Signaling) (Dunn 2006). All images were captured using Zeiss Axiovert 200M and Zeiss Axiocam color digital camera controlled by OpenLab software with a 20× objective. All primers sequence and running protocols for RT-PCR can be found in reference Table 2 (Lugade 2008, Zhang 2008).

B16 melanoma cells = experiment: RT-qPCR of SASP cytokines in B16 cells treated in vitro; format: cell-based, mouse; conditions: veliparib+IR
Experimental: as §1
B16SIY cells were maintained in a full medium supplemented with 10% FCS. The cells were pretreated with 10 μm veliparib then exposed to 6 or 12 Gy x-ray or IR alone (Gammacell 1000; MDS Nordion, Kanata, Ontario, Canada), then cocultured with immature BM-DC in a transwell system. 3 days later BM-DC were collected and analyzed by FACS for cell surface maturation marker and intracellular cytokines. These BM-DC were used to stimulate sorted CD4+ cells (Lugade 2008, Zhang 2008).

[4] = system: bone marrow dendritic cells (CD11c); experiment: Coculture of DCs with senescent TRAMP-C2 cells, immunostimulation assay; conditions: CD45 positive cells
Experimental: Briefly 2×10^6 of collected BM cells were resuspended in 10 ml of complete medium (CM) (RPMI, 10% FBS, pen/strep, HEPES) +20 ng/ml mouse granulocyte-macrophage colony-stimulating factor (GM-CSF). BM were transferred to uncoated plastic Petri dish. On a third day 10 ml of fresh CM+20 ng/ml GM-CSF were added. Immature dendritic cells (DC) were harvested on day 5, were suspended at 5×10^6 cells/ml in ice-cold freezing medium (CM+10 ng/ml GM-CSF+10% DMSO) and frozen for future experiments.
Assayed cells (TRAMP-C2) were plated 2.5×10^5 p100 plates and next day irradiated (6Gy) and 25 μM veliparib to obtained senescent phenotype. For TRAMP-C2 the coculture was started 6 days after cell irradiation and veliparib treatment. DCs were thawed and plated in CM+10 ng/ml GM-CSF 24 hours before they were cocultured with senescent TRAMP-C2 cells. In a day when co-culture started DCs were detached with trypsin and washed twice with phosphate buffered saline (PBS) to remove GM-CSF. Senescent TRAMP-C2 cells culture was washed with PBS and medium also changed to remove veliparib. Washed DCs and senescent cells were cocultured in fresh medium for 2-3 days.
After coculture medium was collected to harvest non-adherent cells fraction. […]
As CD45 is marker of immune cells, only CD45 positive cells were analyzed and TRAMP-C2 cells could be excluded from analysis as CD45 negative.

[5] = system: B16SIY murine melanoma tumors; experiment: H/E and SA-βGal staining of treated B16 tumors; format: in vivo, mouse; conditions: veliparib+IR vs IR or veliparib alone; 7 days after IR
Experimental: Mouse melanoma cell line B16SIY (5×10^5 cells) were implanted subcutaneously in the flank of 6 to 8-wk-old C57/B6 mice. Tumors were allowed to grow until they reached a volume of about 100 to 150 mm^3 (approximately 2 wk) before treatment with PARP inhibitor veliparib (vrib, (R)-2-(2-methylpyrrolidin-2-yl)-1H-benzo[d]imidazole-4-carboxamide, ABT-888) and/or IR (Dunn 2006). Mice received 0.5 mg of veliparib in water twice daily by oral gavage as indicated. CD8^+, CD4^+, NK cells were depleted by anti-CD8 or anti-CD4 or anti-NK1.1, respectively, 1 d before IR. Depletion was confirmed by checking peripheral blood samples by flow cytometry. Macrophages were depleted with liposomal clodronate starting 1 d before IR. Depletion was confirmed by checking splenocyte and tumor samples by flow cytometry (Zhang 2008). Samples were collected 2 to 7 days later, and analyzed by flow cytometry using a BD LSRII flow cytometer. Blood samples were gated in forward scatter and side scatter on smaller cells for CD8, CD4 analysis, larger cells for NK and macrophage, and the percentage of different cell types were determined (Lugade 2008, Zhang 2010).
Slides were deparaffinized in xylene and hydrated with alcohol before being placed in 0.3% H2O2/methanol blocking solution to quench endogenous peroxidase activity followed by subsequent antigen unmasking in EDTA buffer. […]

[6] = veliparib+IR cells, FSC vs. SSC

SMILES: C[C@]1(c2nc3c(C(N)=O)cccc3[nH]2)CCCN1 [veliparib, (R)-2-(2-methylpyrrolidin-2-yl)-1H-benzo[d]imidazole-4-carboxamide]
- B-Gal high cells within the region shown by the black rectangle [1, 6]: 41%
- B-Gal- or B-Gal low cells within the region shown by the black rectangle [1, 6]: 59%
- cells in senescent gate (B-Gal vs. SSC) ([1]; veliparib+IR treated viable cells): 20%
- radiation induced senescence [2]: enhances radiation induced senescence
- cell survival ([3]; IR and veliparib+IR, low glucose medium): more cells survived
- senescent cell morphology and SA-βGal expression ([3]; veliparib and 12 Gy, data not shown): fail to display either the characteristic cell morphology or SA-βGal expression
- IFNβ and CCL5 expression kinetics ([3]; veliparib+IR, high glucose media): only showed low level IFNβ and CCL5 at day 7
- SA-βGal staining ([3]; veliparib+IR, low glucose media vs high glucose): More TUBO cells displayed enhanced senescence-associated β-galactosidase staining
- extracellular ATP release ([3]; veliparib+IR, low glucose media, higher density): higher ATP was detected
- IFNβ and CXCL11 expression kinetics ([3]; veliparib+IR, low glucose medium): started at day 5 through day 10
- cell apoptosis ([3]; veliparib+IR, low vs high glucose medium): no increased cell apoptosis
- chemokine expression (CCL2, CCL3, CCL5, CXCL9, CXCL10, CXCL11) (B16 melanoma cells): upregulated
- IFNβ transcription (B16 melanoma cells; 7 days after 6 Gy): increased transcription of IFNβ
- IL-6 transcription (B16 melanoma cells; 7 days after 6 Gy): decreased IL-6
- population of CD11c positive cells ([4]; TRAMP-C2 treated with 0 Gy+25 μM veliparib): 5.2%
- population of CD11c positive cells ([4]; TRAMP-C2 treated with IR (6Gy)+25 μM veliparib): 36.7%
- enlarged cells and SA-βGal staining in tumors [5]: greater numbers of enlarged cells and more intense SA-βGal staining
